Measurements as given in US20250051281A1, “CRYSTALLINE FORM OF AROMATIC RING DERIVATIVE, AND PREPARATION METHOD THEREFOR AND APPLICATION THEREOF” (SHANGHAI JEMINCARE PHARMACEUTICAL CO., LTD, priority 2021, published 2025).

Experiments:
Assay type in all cases: physicochemical
[1] = Changes in shape of crystal forms under high temperature, high humidity and light exposure (Table 26)
Excerpt: (§1) Consequently, the inventors selected four crystal forms with good reproducibility and ease of purification: crystal forms A, B, G, and Q. These crystal forms were subjected to stability tests under identical conditions of high temperature, high humidity, and light exposure.

[2] = Purity of crystal forms at storage conditions of 25° C. and 40° C. (Table 27)
Method: (§2) The high-performance liquid chromatography (HPLC) analysis method used in the present disclosure is as follows: an Agilent 1260 was used to test the purity and stability of the sample under the conditions shown in Table 18.
The purity of crystal forms A, B, G, and Q, under identical mass and packaging conditions, was investigated at storage conditions of 25° C. and 40° C., as shown in Table 27.

[3] = Stability test of crystal forms under high temperature, high humidity and light exposure (HPLC purity); conditions: for Purity after 30 days at a temperature of 25° C. with a relative humidity of 90% ± 5%: 90% ± 5% RH; for Purity after 30 days at a temperature of 25° C. with a relative humidity of 90% ± 5% / Purity after 30 days at high temperature (60° C.) / Purity after 30 days at a light intensity of 4500 Lx ± 500 Lx / Initial purity: HPLC purity; for Initial purity: before stress conditions
Excerpt: as §2, §1

[4] = Stability verification of crystal form G in different solvents (XRPD form after slurry or vapour exposure); conditions: room temperature, dried under vacuum at 50° C. for 2 hours
Method: The X-ray powder diffraction analysis method used in the present disclosure is as follows: X-ray powder diffraction testing was conducted at room temperature using a Bruker D2 PHASER diffractometer (300 W low-power X-ray emitter). During the test, a silicon wafer was used to sustain the sample powder, and an X-ray Cu (Kα) tube was used, with a Kα2/Kα1 intensity ratio of 0.50 (1.54439 Å/1.5406 Å). The instrument was set to 30 kV and 10 mA, with a step size of 0.02° (2θ), a scanning time of 0.15 s per step, for a total of 1837 steps.
Method 1: The crystal form G (50 mg) was added to 0.5 mL of the corresponding solvent (the solvent may be EtOH, H2O, or a mixture of EtOH/H2O in the ratios of 970/30, 927/73, 855/145, 704/296, v/v).
Method 2: The crystal form G (15 mg) was placed in a 4 mL glass vial, which was then placed inside a 20 mL glass vial containing 3 mL of a volatile solvent (which may be MeOH or EtOH). The 20 mL glass vial was tightly capped and left to stand at room temperature for approximately one week.

[5] = High Temperature (60° C.), 5 Days
[6] = High Temperature (60° C.), 10 Days
[7] = High Temperature (60° C.), 30 Days
[8] = Light intensity of 4500 Lx ± 500 Lx, 5 Days
[9] = Light intensity of 4500 Lx ± 500 Lx, 10 Days
[10] = Light intensity of 4500 Lx ± 500 Lx, 30 Days
[11] = Temperature of 25° C., relative humidity of 90% ± 5%, 5 Days
[12] = Temperature of 25° C., relative humidity of 90% ± 5%, 10 Days
[13] = Temperature of 25° C., relative humidity of 90% ± 5%, 30 Days

SMILES | Shape (appearance) [1, 5] | Shape (appearance) [1, 6] | Shape (appearance) [1, 7] | Shape (appearance) ([1]; Initial State) | Shape (appearance) [1, 8] | Shape (appearance) [1, 9] | Shape (appearance) [1, 10] | Shape (appearance) [1, 11] | Shape (appearance) [1, 12] | Shape (appearance) [1, 13] | Purity on storage ([2]; 25° C., 0 Days) [%] | Purity on storage ([2]; 25° C., 15 Days) [%] | Purity on storage ([2]; 25° C., 30 Days) [%] | Purity on storage ([2]; 25° C., 45 Days) [%] | Purity on storage ([2]; 25° C., 60 Days) [%] | Purity on storage ([2]; 25° C., 90 Days) [%] | Purity on storage ([2]; 40° C., 0 Days) [%] | Purity on storage ([2]; 40° C., 15 Days) [%] | Purity on storage ([2]; 40° C., 30 Days) [%] | Purity on storage ([2]; 40° C., 45 Days) [%] | other results
Cc1c(CCC(=O)O)[nH]c2ccc(OCc3ccc(C4CCCC4)c(C(F)(F)F)c3)cc12 [Crystal form B] | Off-white | Off-white | Off-white | Off-white | Off-white | Pale yellow | Yellow solid | Off-white | Off-white | Off-white | 99.14 | 99.05 | 99.00 | 98.93 | 98.94 | 98.86 | 99.14 | 98.88 | 98.73 | 98.68 | Purity on storage ([2]; 40° C., 60 Days): 98.66%; Purity on storage ([2]; 40° C., 90 Days): 98.40%; Purity after 30 days at a temperature of 25° C. with a relative humidity of 90% ± 5% [3]: 98.50%; Purity after 30 days at high temperature (60° C.) [3]: 97.21%; Purity after 30 days at a light intensity of 4500 Lx ± 500 Lx [3]: 94.55%; Initial purity [3]: 99.44%
Cc1c(CCC(=O)[O][Ca][O]C(=O)CCc2[nH]c3ccc(OCc4ccc(C5CCCC5)c(C(F)(F)F)c4)cc3c2C)[nH]c2ccc(OCc3ccc(C4CCCC4)c(C(F)(F)F)c3)cc12 [Crystal form G] | Off-white solid | Off-white solid | Off-white solid | Off-white solid | Off-white solid | Pale yellow | Yellow solid | Off-white solid | Off-white solid | Off-white solid | 99.48 | 99.42 | 99.43 | 99.43 | 99.41 | 99.36 | 99.48 | 99.28 | 99.27 | 99.24 | Purity on storage ([2]; 40° C., 60 Days): 99.16%; Purity on storage ([2]; 40° C., 90 Days): 99.01%; Stability when stored at 25° C. and 40° C. for 90 days ([2]; summary of Table 27, 90 days): higher stability; Purity after 30 days at a temperature of 25° C. with a relative humidity of 90% ± 5% [3]: 98.78%; Purity after 30 days at high temperature (60° C.) [3]: 99.12%; Purity after 30 days at a light intensity of 4500 Lx ± 500 Lx [3]: 96.02%; Initial purity [3]: 99.60%; Stability under high temperature, high humidity, and light exposure conditions compared to the other crystal forms ([3]; summary of Tables 25 and 26, versus crystal forms A, B, Q): higher stability; Crystal form obtained after stirring in solvent ([4]; EtOH, H2O or EtOH/H2O mixtures, 4 days): obtain the crystal form G; Crystal form obtained after exposure to volatile solvent vapour ([4]; MeOH or EtOH vapour, approximately one week): obtain the crystal form G
Cc1c(CCC(=O)O)[nH]c2ccc(OCc3ccc(C4CCCC4)c(C(F)(F)F)c3)cc12 [Crystal form A] | Off-white | Pale yellow | Yellow solid | Off-white | Off-white | Pale yellow | Yellow solid | Off-white | Off-white | Off-white | 99.03 | 98.91 | 98.93 | 98.87 | 98.85 | 98.73 | 99.03 | 98.73 | 98.42 | 98.30 | Purity on storage ([2]; 40° C., 60 Days): 98.15%; Purity on storage ([2]; 40° C., 90 Days): 97.69%; Purity after 30 days at a temperature of 25° C. with a relative humidity of 90% ± 5% [3]: 98.49%; Purity after 30 days at high temperature (60° C.) [3]: 94.57%; Purity after 30 days at a light intensity of 4500 Lx ± 500 Lx [3]: 94.45%; Initial purity [3]: 99.28%
